Reference: patent publication US20210255193A1, “LYSINE REACTIVE PROBES AND USES THEREOF” (The Scripps Research Institute, priority 2017, published 2021)

Columns and labels:
Assay in all cases: competitive isoTOP-ABPP
Format in all cases: binding
[1] = target: T1, IFIT3 Interferon-induced protein with tetratricopeptide (Homo sapiens, UniProt O14879); details: for R value (DMSO/fragment) for probe 1 labeling: O14879_K148; for R value (DMSO/fragment) for probe 1 labeling / isoTOP-ABPP reactivity ratio at lysine O14879_K148 / isoTOP-ABPP ratio (R) at liganded lysine O14879_K148: 50 uM, in vitro; for R value (DMSO/fragment) for probe 1 labeling / isoTOP-ABPP reactivity ratio at lysine O14879_K148: 231 sol; for isoTOP-ABPP ratio (R) at liganded lysine O14879_K148: sol, 231; for isoTOP-ABPP ratio, lysine O14879_K148: 50 uM_231_sol_in vitro
T1 construct: isoTOP-ABPP experiments performed in cell lysates (in vitro); endogenous in cells; host or cells: MDA-MB-231 soluble lysate
T1 sequence (O14879 1-490): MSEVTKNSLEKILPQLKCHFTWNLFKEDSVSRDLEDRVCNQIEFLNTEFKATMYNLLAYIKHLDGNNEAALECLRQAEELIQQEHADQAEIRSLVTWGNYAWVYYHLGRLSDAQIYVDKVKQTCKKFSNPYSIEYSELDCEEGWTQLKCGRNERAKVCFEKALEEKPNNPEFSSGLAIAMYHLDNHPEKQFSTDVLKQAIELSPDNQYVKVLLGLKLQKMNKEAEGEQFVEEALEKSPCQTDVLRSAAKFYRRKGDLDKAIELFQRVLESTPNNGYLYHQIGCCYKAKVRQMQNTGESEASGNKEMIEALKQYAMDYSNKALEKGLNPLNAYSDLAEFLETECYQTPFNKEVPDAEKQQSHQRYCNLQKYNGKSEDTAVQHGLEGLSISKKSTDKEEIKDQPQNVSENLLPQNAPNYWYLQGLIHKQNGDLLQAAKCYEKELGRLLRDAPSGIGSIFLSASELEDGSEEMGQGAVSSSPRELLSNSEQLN
Method in brief: (§1)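 Here, isoTOP-ABPP measures loss of STP-alkyne labeling at individual lysines after fragment exposure in lysate. Activated esters are dosed at 50 μM, guanidinylating agents at 100 μM; the probe follows at 0.1 mM for 1 h. R ≥4 marks a liganded lysine.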

[2] = target: T2, NT5DC1 5-nucleotidase domain-containing protein 1 (Homo sapiens, UniProt Q5TFE4); details: for R value (DMSO/fragment) for probe 1 labeling: Q5TFE4_K123; for R value (DMSO/fragment) for probe 1 labeling / isoTOP-ABPP reactivity ratio at lysine Q5TFE4_K123 / isoTOP-ABPP ratio (R) at liganded lysine Q5TFE4_K123: 50 uM, in vitro; for R value (DMSO/fragment) for probe 1 labeling / isoTOP-ABPP reactivity ratio at lysine Q5TFE4_K123: 231 sol; for isoTOP-ABPP ratio (R) at liganded lysine Q5TFE4_K123: sol, 231
T2 construct: isoTOP-ABPP experiments performed in cell lysates (in vitro); endogenous in cells; host or cells: soluble proteome of human cancer cell lines (MDA-MB-231; Ramos and Jurkat also prepared)
T2 sequence (Q5TFE4 1-455): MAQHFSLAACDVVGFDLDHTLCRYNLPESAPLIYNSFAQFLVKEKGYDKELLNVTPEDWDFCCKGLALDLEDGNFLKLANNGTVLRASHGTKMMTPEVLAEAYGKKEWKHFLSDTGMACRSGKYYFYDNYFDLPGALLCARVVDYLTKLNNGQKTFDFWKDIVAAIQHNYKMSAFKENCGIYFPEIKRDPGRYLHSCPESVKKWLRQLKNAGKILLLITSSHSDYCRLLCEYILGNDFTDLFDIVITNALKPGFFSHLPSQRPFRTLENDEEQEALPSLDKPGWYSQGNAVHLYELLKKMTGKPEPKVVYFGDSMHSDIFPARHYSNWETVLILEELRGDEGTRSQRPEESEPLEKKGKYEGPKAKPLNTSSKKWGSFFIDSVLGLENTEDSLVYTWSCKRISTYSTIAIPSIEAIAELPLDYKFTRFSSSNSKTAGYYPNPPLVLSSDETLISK
Method in brief: as §1

[3] = target: T3, LDHB L-lactate dehydrogenase B chain (Homo sapiens, UniProt P07195); details: for R value (DMSO/fragment) for probe 1 labeling / isoTOP-ABPP reactivity ratio at lysine P07195_K82 / isoTOP-ABPP reactivity ratio at lysine P07195_K244 / isoTOP-ABPP ratio (R) at liganded lysine P07195_K244 / isoTOP-ABPP ratio (R) at liganded lysine P07195_K82: 50 uM, in vitro; for R value (DMSO/fragment) for probe 1 labeling / isoTOP-ABPP reactivity ratio at lysine P07195_K82 / isoTOP-ABPP reactivity ratio at lysine P07195_K244: 231 sol; for isoTOP-ABPP ratio (R) at liganded lysine P07195_K244 / isoTOP-ABPP ratio (R) at liganded lysine P07195_K82: sol, 231
T3 construct: isoTOP-ABPP experiments performed in cell lysates (in vitro); endogenous in cells; host or cells: MDA-MB-231 soluble lysate
T3 sequence (P07195 whole entry, the tested form may be a part): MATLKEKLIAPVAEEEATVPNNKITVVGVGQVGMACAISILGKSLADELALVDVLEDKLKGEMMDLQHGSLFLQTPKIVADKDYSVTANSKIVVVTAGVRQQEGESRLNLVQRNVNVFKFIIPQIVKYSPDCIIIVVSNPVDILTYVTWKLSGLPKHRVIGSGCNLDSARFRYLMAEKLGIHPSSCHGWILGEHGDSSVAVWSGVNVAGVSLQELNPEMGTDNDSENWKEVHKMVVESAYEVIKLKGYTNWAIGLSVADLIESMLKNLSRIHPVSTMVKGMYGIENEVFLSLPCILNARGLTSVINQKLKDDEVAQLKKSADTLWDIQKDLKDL
Method in brief: as §1

O=C(CCc1cn(-c2ccccc2)nc1-c1ccccc1)Oc1c(F)c(F)c(F)c(F)c1F [fragment 19, Pentafluorophenyl 3-(1,3-diphenyl-1H-pyrazol-4-yl)propanoate]
R value (DMSO/fragment) for probe 1 labeling [1]: 0.9
R value (DMSO/fragment) for probe 1 labeling [2]: 20.0

O=C(Oc1c(F)c(F)c(F)c(F)c1F)C(c1ccccc1)c1ccccc1 [fragment 20, Pentafluorophenyl 2,2-diphenylacetate]
R value (DMSO/fragment) for probe 1 labeling [1]: 0.7
R value (DMSO/fragment) for probe 1 labeling ([3]; P07195_K82): 1.2
R value (DMSO/fragment) for probe 1 labeling ([3]; P07195_K244): 1.0
R value (DMSO/fragment) for probe 1 labeling [2]: 1.0

O=C(Oc1c(F)c(F)c(F)c(F)c1F)c1cc(C(F)(F)F)cc(C(F)(F)F)c1 [fragment 21, Pentafluorophenyl 3,5-bis(trifluoromethyl)benzoate]
R value (DMSO/fragment) for probe 1 labeling [1]: 1.4
R value (DMSO/fragment) for probe 1 labeling ([3]; P07195_K244): 1.0
R value (DMSO/fragment) for probe 1 labeling [2]: 1.2

Cn1cc(CC(=O)Oc2c(F)c(F)c(F)c(F)c2F)c2ccccc21 [fragment 22, Pentafluorophenyl 2-(1-methyl-1H-indol-3-yl)acetate]
R value (DMSO/fragment) for probe 1 labeling ([3]; P07195_K82): 0.8
R value (DMSO/fragment) for probe 1 labeling ([3]; P07195_K244): 1.0

COc1cc(CCC(=O)Oc2c(F)c(F)c(F)c(F)c2F)cc(OC)c1OC [fragment 23, Pentafluorophenyl 3-(3,4,5-trimethoxyphenyl)propanoate]
R value (DMSO/fragment) for probe 1 labeling [2]: 1.5

O=C(Oc1c(F)c(F)c(F)c(F)c1F)C1CCN(C(=O)OCc2ccccc2)CC1 [fragment 24, 1-Benzyl 4-(pentafluorophenyl) piperidine-1,4-dicarboxylate]
isoTOP-ABPP reactivity ratio at lysine O14879_K148 [1]: 1.3
isoTOP-ABPP reactivity ratio at lysine Q5TFE4_K123 [2]: 1.1

O=C(Oc1c(F)c(F)c(F)c(F)c1F)c1ccc2ccccc2n1 [fragment 25, Pentafluorophenyl quinoline-2-carboxylate]
isoTOP-ABPP reactivity ratio at lysine O14879_K148 [1]: 1.9

O=C(CCc1coc2cc(F)ccc2c1=O)Oc1c(F)c(F)c(F)c(F)c1F [fragment 26, Pentafluorophenyl 3-(7-fluoro-4-oxo-4H-chromen-3-yl)propanoate]
isoTOP-ABPP reactivity ratio at lysine O14879_K148 [1]: 1.4
isoTOP-ABPP reactivity ratio at lysine P07195_K82 [3]: 0.7

O=C(CN1C(=O)c2ccccc2C1=O)Oc1c(F)c(F)c(F)c(F)c1F [fragment 27, Pentafluorophenyl 2-(1,3-dioxoisoindolin-2-yl)acetate]
isoTOP-ABPP reactivity ratio at lysine O14879_K148 [1]: 0.9

CCn1cc(C(=O)Oc2c(F)c(F)c(F)c(F)c2F)c(=O)c2ccc(C)nc21 [fragment 28, Pentafluorophenyl 1-ethyl-7-methyl-4-oxo-1,4-dihydro-1,8-naphthyridine-3-carboxylate]
isoTOP-ABPP reactivity ratio at lysine O14879_K148 [1]: 1.0
isoTOP-ABPP reactivity ratio at lysine Q5TFE4_K123 [2]: 1.2

O=C(CCc1cn(-c2ccccc2)nc1-c1ccccc1)Oc1ccc([N+](=O)[O-])cc1[N+](=O)[O-] [fragment 29, 2,4-Dinitrophenyl 3-(1,3-diphenyl-1H-pyrazol-4-yl)propanoate]
isoTOP-ABPP reactivity ratio at lysine O14879_K148 [1]: 4.1
isoTOP-ABPP reactivity ratio at lysine Q5TFE4_K123 [2]: 1.2

O=C(Oc1ccc([N+](=O)[O-])cc1[N+](=O)[O-])C(c1ccccc1)c1ccccc1 [fragment 30, 2,4-Dinitrophenyl 2,2-diphenylacetate]
isoTOP-ABPP reactivity ratio at lysine P07195_K82 [3]: 20.0
isoTOP-ABPP reactivity ratio at lysine P07195_K244 [3]: 1.2

Cn1cc(CC(=O)Oc2ccc([N+](=O)[O-])cc2[N+](=O)[O-])c2ccccc21 [fragment 32, 2,4-Dinitrophenyl 2-(1-methyl-1H-indol-3-yl)acetate]
isoTOP-ABPP reactivity ratio at lysine P07195_K82 [3]: 0.8
isoTOP-ABPP reactivity ratio at lysine P07195_K244 [3]: 1.0

O=C(Oc1ccc([N+](=O)[O-])cc1[N+](=O)[O-])C1CCN(C(=O)OCc2ccccc2)CC1 [fragment 34, 1-Benzyl 4-(2,4-dinitrophenyl) piperidine-1,4-dicarboxylate]
isoTOP-ABPP ratio (R) at liganded lysine P07195_K244 [3]: 1.0

O=C(Oc1ccc([N+](=O)[O-])cc1[N+](=O)[O-])c1ccc2ccccc2n1 [fragment 35, 2,4-Dinitrophenyl quinoline-2-carboxylate]
isoTOP-ABPP ratio (R) at liganded lysine P07195_K82 [3]: 0.6

O=C(CCc1coc2cc(F)ccc2c1=O)Oc1ccc([N+](=O)[O-])cc1[N+](=O)[O-] [fragment 36, 2,4-Dinitrophenyl 3-(7-fluoro-4-oxo-4H-chromen-3-yl)propanoate]
isoTOP-ABPP ratio (R) at liganded lysine O14879_K148 [1]: 3.4
isoTOP-ABPP ratio (R) at liganded lysine P07195_K82 [3]: 0.9
isoTOP-ABPP ratio (R) at liganded lysine P07195_K244 [3]: 20.0
isoTOP-ABPP ratio (R) at liganded lysine Q5TFE4_K123 [2]: 20.0

O=C(Oc1ccc([N+](=O)[O-])cc1[N+](=O)[O-])c1ccc(-c2ccccc2)cc1 [fragment 37, 2,4-Dinitrophenyl [1,1′-biphenyl]-4-carboxylate]
isoTOP-ABPP ratio (R) at liganded lysine P07195_K82 [3]: 0.8
isoTOP-ABPP ratio (R) at liganded lysine P07195_K244 [3]: 0.8
isoTOP-ABPP ratio (R) at liganded lysine Q5TFE4_K123 [2]: 1.8

O=C(CC12CC3CC(CC(C3)C1)C2)Oc1ccc([N+](=O)[O-])cc1[N+](=O)[O-] [fragment 38, 2,4-Dinitrophenyl 2-(adamantan-1-yl)acetate]
isoTOP-ABPP ratio (R) at liganded lysine P07195_K82 [3]: 0.7

O=C(Oc1ccc([N+](=O)[O-])cc1[N+](=O)[O-])c1ccc(Oc2ccccc2)cc1 [fragment 39, 2,4-Dinitrophenyl 4-phenoxybenzoate]
isoTOP-ABPP ratio (R) at liganded lysine O14879_K148 [1]: 1.4
isoTOP-ABPP ratio (R) at liganded lysine P07195_K82 [3]: 20.0
isoTOP-ABPP ratio (R) at liganded lysine P07195_K244 [3]: 1.0

O=C(Oc1ccc([N+](=O)[O-])cc1[N+](=O)[O-])c1ccccc1Nc1cccc(C(F)(F)F)c1 [fragment 40, 2,4-Dinitrophenyl 2-((3-(trifluoromethyl)phenyl)amino)benzoate]
isoTOP-ABPP ratio (R) at liganded lysine P07195_K82 [3]: 20.0

CC(C)(C)OC(=O)NCCCC(=O)Oc1ccc([N+](=O)[O-])cc1[N+](=O)[O-] [fragment 41, 2,4-Dinitrophenyl 4-((tert-butoxycarbonyl)amino)butanoate]
isoTOP-ABPP ratio (R) at liganded lysine P07195_K244 [3]: 20.0

O=C(Oc1ccc([N+](=O)[O-])cc1[N+](=O)[O-])C(c1ccccc1)(c1ccccc1)c1ccccc1 [fragment 42, 2,4-Dinitrophenyl 2,2,2-triphenylacetate]
isoTOP-ABPP ratio (R) at liganded lysine O14879_K148 [1]: 0.8
isoTOP-ABPP ratio (R) at liganded lysine P07195_K82 [3]: 20.0
isoTOP-ABPP ratio (R) at liganded lysine Q5TFE4_K123 [2]: 0.6

N#Cc1ccc(C(=O)Oc2ccc([N+](=O)[O-])cc2[N+](=O)[O-])cc1 [fragment 44, 2,4-Dinitrophenyl 4-cyanobenzoate]
isoTOP-ABPP ratio, lysine O14879_K148 [1]: 2.2
isoTOP-ABPP ratio, lysine P07195_K82 ([3]; 50 uM_231_sol_in vitro): 1.0
isoTOP-ABPP ratio, lysine P07195_K244 ([3]; 50 uM_231_sol_in vitro): 1.1

O=C(CCc1ccc2c(c1)OCO2)Oc1ccc([N+](=O)[O-])cc1[N+](=O)[O-] [fragment 45, 2,4-Dinitrophenyl 3-(benzo[d][1,3]dioxol-5-yl)propanoate]
isoTOP-ABPP ratio, lysine O14879_K148 [1]: 2.7
isoTOP-ABPP ratio, lysine Q5TFE4_K123 ([2]; 50 uM_231_sol_in vitro): 2.1

O=C(Oc1c(F)c(F)c(C(F)(F)F)c(F)c1F)c1cc(C(F)(F)F)cc(C(F)(F)F)c1 [fragment 47, 2,3,5,6-Tetrafluoro-4-(trifluoromethyl)phenyl 3,5-bis(trifluoromethyl)benzoate]
isoTOP-ABPP ratio, lysine P07195_K244 ([3]; 50 uM_231_sol_in vitro): 1.0

O=C(Oc1c(F)c(F)cc(F)c1F)c1cc(C(F)(F)F)cc(C(F)(F)F)c1 [fragment 48, 2,3,5,6-Tetrafluorophenyl 3,5-bis(trifluoromethyl)benzoate]
isoTOP-ABPP ratio, lysine O14879_K148 [1]: 0.7

COC(=O)NC(=NC(=O)OCC1c2ccccc2-c2ccccc21)n1cccn1 [fragment 49, N-Methoxycarbonyl-N′-9-fluorenylmethoxycarbonyl-pyrazole-1-carboxamidine]
isoTOP-ABPP ratio, lysine Q5TFE4_K123 ([2]; 100 uM_231_sol_in vitro): 1.3
